How the values were obtained:
rat [1] = experiment: amount in urine after dosing (umol); settings: inhalation, duration: 4 hr, F344 (Harlan Winkelmann)
Rat [2] = experiment: concentration in liver after dosing; settings: 24 h; dosed: Perfluorooctane Sulfonate; 20 mg/kg; oral; Female; F344
Rat [3] = experiment: concentration in brain after dosing; settings: 24 h; dosed: Perfluorooctane Sulfonate; 2 mg/kg; oral; Female; Harlan Sprague Dawley
Rat [4] = experiment: concentration in liver after dosing; settings: 864 h; dosed: Perfluorooctane Sulfonate; 20 mg/kg; oral; Male; Harlan Sprague Dawley
Rat [5] = experiment: concentration in liver after dosing; settings: 1848 h; dosed: Perfluorooctane Sulfonate; 20 mg/kg; oral; Female; F344
Rat [6] = experiment: concentration in kidney after dosing; settings: 6 h; dosed: Perfluorooctane Sulfonate; 20 mg/kg; oral; Male; Harlan Sprague Dawley
Rat [7] = experiment: concentration in plasma after dosing; settings: 1848 h; dosed: Perfluorooctane Sulfonate; 2 mg/kg; oral; Female; Harlan Sprague Dawley
Rat [8] = experiment: concentration in brain after dosing; settings: 0.5 h; dosed: Perfluorohexanoic Acid; 80 mg/kg; oral; Male; Harlan Sprague Dawley
Rat [9] = experiment: concentration in liver after dosing; settings: 6 h; dosed: Perfluorohexanoic Acid; 80 mg/kg; oral; Male; Harlan Sprague Dawley
Rat [10] = experiment: concentration in liver after dosing; settings: 3 h; dosed: Perfluorohexanoic Acid; 80 mg/kg; oral; Female; Harlan Sprague Dawley
Rat [11] = experiment: concentration in plasma after dosing; settings: dosed: Perfluorohexanoic Acid, 40 mg/kg, oral, Male, Harlan Sprague Dawley
Rat [12] = experiment: concentration in kidney after dosing; settings: 1 h; dosed: Perfluorohexanoic Acid; 80 mg/kg; oral; Female; Harlan Sprague Dawley
Rat [13] = experiment: concentration in plasma after dosing; settings: 0.5 h; dosed: Perfluorohexanoic Acid; 40 mg/kg; iv; Male; F344
Rat [14] = experiment: concentration in plasma after dosing; settings: 0.75 h; dosed: Perfluorohexanoic Acid; 40 mg/kg; iv; Female; Harlan Sprague-Dawley
Rat [15] = experiment: concentration in plasma after dosing; settings: 0.75 h; dosed: Perfluorohexanoic Acid; 40 mg/kg; iv; Male; F344
Rat [16] = experiment: concentration in plasma after dosing; settings: 1.5 h; dosed: Perfluorohexanoic Acid; 40 mg/kg; iv; Male; F344
Rat [17] = experiment: concentration in plasma after dosing; settings: 1.5 h; dosed: Perfluorohexanoic Acid; 40 mg/kg; iv; Male; F344; remark: listed apart in the source
Rat [18] = experiment: concentration in kidney after dosing; settings: 12 h; dosed: Perfluorohexanoic Acid; 80 mg/kg; oral; Male; Harlan Sprague Dawley
Rat [19] = experiment: concentration in kidney after dosing; settings: 3 h; dosed: Perfluorohexanoic Acid; 80 mg/kg; oral; Female; Harlan Sprague Dawley
Rat [20] = experiment: concentration in kidney after dosing; settings: 6 h; dosed: Perfluorohexanoic Acid; 80 mg/kg; oral; Male; Harlan Sprague Dawley
Rat [21] = experiment: concentration in plasma after dosing; settings: 1 h; dosed: Gemfibrozil; 50 mg/kg; oral; Male; Sprague-Dawley
Rat [22] = experiment: concentration in plasma after dosing; settings: 0.25 h; dosed: Gemfibrozil; 50 mg/kg; oral; Male; Sprague-Dawley
Rat [23] = experiment: concentration in plasma after dosing; settings: 10 min; dosed: Gemfibrozil; 4.29 mg/kg; oral; Male; Sprague-Dawley
Rat [24] = experiment: concentration in plasma after dosing; settings: 6 h; dosed: Gemfibrozil; 4.29 mg/kg; oral; Male; Sprague-Dawley
Rat [25] = experiment: concentration in plasma after dosing; settings: 5 min; dosed: Gemfibrozil; 4.29 mg/kg; oral; Male; Sprague-Dawley
Rat [26] = experiment: concentration in brain after dosing; settings: 1.5 h; dosed: 2-Methyltetrahydrofuran; 40 mg/kg; iv; Male; Harlan Sprague Dawley
Rat [27] = experiment: concentration in brain after dosing; settings: 4 h; dosed: 2-Methyltetrahydrofuran; 40 mg/kg; iv; Female; Harlan Sprague Dawley
Rat [28] = experiment: concentration in brain after dosing; settings: 2 min; dosed: 2-Methyltetrahydrofuran; 40 mg/kg; iv; Female; Harlan Sprague Dawley
Rat [29] = experiment: concentration in plasma after dosing; settings: 2 h; dosed: 2-Methyltetrahydrofuran; 40 mg/kg; iv; Male; Harlan Sprague Dawley
Rat [30] = experiment: concentration in plasma after dosing; settings: 7 min; dosed: 2-Methyltetrahydrofuran; 40 mg/kg; iv; Male; Harlan Sprague Dawley
Rat [31] = experiment: concentration in liver after dosing; settings: 3 h; dosed: Fluorotelomer alcohol 8+2; 80 mg/kg; oral; Female; Harlan Sprague Dawley
Rat [32] = experiment: concentration in brain after dosing; settings: 6 h; dosed: Fluorotelomer alcohol 8+2; 24 mg/kg; oral; Male; Harlan Sprague Dawley
Rat [33] = experiment: concentration in kidney after dosing; settings: 12 h; dosed: Fluorotelomer alcohol 8+2; 24 mg/kg; oral; Male; Harlan Sprague Dawley
Rat [34] = experiment: concentration in plasma after dosing; settings: 3 h; dosed: Fluorotelomer alcohol 8+2; 12 mg/kg; oral; Male; Harlan Sprague Dawley
Rat [35] = experiment: concentration in plasma after dosing; settings: dosed: 678-39-7, 12 mg/kg, iv, Male, F344
Rat [36] = experiment: concentration in plasma after dosing; settings: 3 h; dosed: 678-39-7; 12 mg/kg; iv; Male; F344

CC(C)(O)C(=O)O [2-hydroxyisobutyrate]
rat [1]
Settings	amount in urine
5.92 h, dosed: ethyl tert-butyl ether, 4.5 ppm	0.229
5.923 h, dosed: methyl tert-butyl ether, 38.7 ppm	1.23
5.99 h, dosed: ethyl tert-butyl ether, 40.6 ppm	1.23
11.86 h, dosed: ethyl tert-butyl ether, 4.5 ppm	0.657
11.94 h, dosed: ethyl tert-butyl ether, 40.6 ppm	3.65
11.94 h, dosed: methyl tert-butyl ether, 38.7 ppm	6.37
11.97 h, dosed: methyl tert-butyl ether, 4.5 ppm	0.837
17.79 h, dosed: ethyl tert-butyl ether, 4.5 ppm	1.03
17.99 h, dosed: methyl tert-butyl ether, 38.7 ppm	2.57
18.01 h, dosed: methyl tert-butyl ether, 4.5 ppm	0.625
18.03 h, dosed: ethyl tert-butyl ether, 40.6 ppm	5.39
23.79 h, dosed: ethyl tert-butyl ether, 4.5 ppm	0.405
23.95 h, dosed: methyl tert-butyl ether, 4.5 ppm	0.205
23.95 h, dosed: methyl tert-butyl ether, 38.7 ppm	0.915
23.98 h, dosed: ethyl tert-butyl ether, 40.6 ppm	0.922
29.73 h, dosed: ethyl tert-butyl ether, 4.5 ppm	0.355
29.93 h, dosed: ethyl tert-butyl ether, 40.6 ppm	0.521
29.93 h, dosed: methyl tert-butyl ether, 38.7 ppm	0.315
29.96 h, dosed: methyl tert-butyl ether, 4.5 ppm	0.239

O=S(=O)([O-])C(F)(F)C(F)(F)C(F)(F)C(F)(F)C(F)(F)C(F)(F)C(F)(F)C(F)(F)F [Perfluorooctane Sulfonate]
Settings	concentration in brain [ng/g]	concentration in kidney [ng/g]	concentration in liver [ng/g]	concentration in plasma [ng/mL]
Rat [2]	–	–	167000	–
Rat [3]	851	–	–	–
Rat [4]	–	–	98700	–
Rat [5]	–	–	55400	–
Rat [6]	–	72300	–	–
Rat [7]	–	–	–	966

O=C(O)C(F)(F)C(F)(F)C(F)(F)C(F)(F)C(F)(F)F [Perfluorohexanoic Acid]
Settings	concentration in brain [ng/g]	concentration in kidney [ng/g]	concentration in liver [ng/g]	concentration in plasma [ng/mL]
Rat [8]	2590	–	–	–
Rat [9]	–	–	9200	–
Rat [10]	–	–	8200	–
Rat [12]	–	85800	–	–
Rat [13]	–	–	–	4980
Rat [14]	–	–	–	113
Rat [15]	–	–	–	18600
Rat [16]	–	–	–	8050
Rat [17]	–	–	–	8490
Rat [18]	–	1990	–	–
Rat [19]	–	38000	–	–
Rat [20]	–	16900	–	–

Rat [11]
Settings	concentration in plasma [ng/mL]
0.5 h	59900
9 h	9200

Cc1ccc(C)c(OCCCC(C)(C)C(=O)O)c1 [Gemfibrozil]
Settings	concentration in plasma [ng/mL]
Rat [21]	7680
Rat [22]	14400
Rat [23]	606
Rat [24]	640
Rat [25]	485

CC1CCCO1 (configuration not stated) [2-Methyltetrahydrofuran]
Settings	concentration in brain [ng/mL]	concentration in plasma [ng/mL]
Rat [26]	7300	–
Rat [27]	111	–
Rat [28]	50400	–
Rat [29]	–	12100
Rat [30]	–	48100

CC(O)C(C)(C)O (configuration not stated) [2-methyl-2,3-butanediol]
amount in urine, rat [1], dosed: tert-amyl methyl ether
Settings	3.8 ppm	38.4 ppm
5.961 h	–	1.13
5.981 h	0.237	–
11.86 h	0.262	–
12.08 h	–	2.25
17.94 h	0.179	1.18
23.82 h	0.0479	–
23.95 h	–	0.366
29.9 h	0.0229	–
29.96 h	–	0.165
35.73 h	0.0302	–
36.08 h	–	0.225
41.81 h	0.024	–
41.88 h	–	0.175
47.74 h	0.0115	–
47.95 h	–	0.084

O=C(O)CCC(F)(F)C(F)(F)C(F)(F)C(F)(F)C(F)(F)C(F)(F)C(F)(F)F [Fluorotelomer acid 7+3]
Settings	concentration in brain [ng/g]	concentration in kidney [ng/g]	concentration in liver [ng/g]	concentration in plasma [ng/mL]
Rat [31]	–	–	11400	–
Rat [32]	305	–	–	–
Rat [33]	–	751	–	–
Rat [34]	–	–	–	726
Rat [36]	–	–	–	735

Rat [35]
Settings	concentration in plasma [ng/mL]
0.25 h	37
24 h	183

Source: EPA's CvTdb concentration-time database
